Data: ChEMBL document CHEMBL1131901, “Synthesis and opiate receptor binding properties of 17-methyl-6,7-dehydro-3,14-dihydroxy-4,5alpha-epoxy-6,7:4',5'-pyrimidin omorphinans” (Bioorg Med Chem Lett, 1999)

Columns and labels:
[1] = molecular target: T1, Kappa-type opioid receptor (Homo sapiens, UniProt P41145); experiment: (§1) Agonistic activity against human opioid Kappa receptor transfected into Chinese hamster ovary (CHO) cells using [3H]U-69593 as radioligand; assay type: functional, cell-based
[2] = molecular target: T2, Delta-type opioid receptor (Homo sapiens, UniProt P41143); experiment: (§2) Agonistic activity against human opioid Delta receptor transfected into Chinese hamster ovary (CHO) cells using [3H]Cl-DPDPE as radioligand; assay type: functional, cell-based
[3] = molecular target: T3, Mu-type opioid receptor (Homo sapiens, UniProt P35372); experiment: Agonistic activity against human opioid Mu receptor transfected into Chinese hamster ovary (CHO) cells using [3H]DAMGO as radioligand; assay type: functional, cell-based
[4] = molecular target: T2, Delta-type opioid receptor; experiment: as §2; assay type: functional, cell-based; remark: listed apart in the source
[5] = molecular target: T2, Delta-type opioid receptor; experiment: Binding affinity towards human opioid Delta receptor transfected into Chinese hamster ovary (CHO) cells using [3H]Cl-DPDPE as radioligand.; assay type: cell-based
[6] = molecular target: T1, Kappa-type opioid receptor; experiment: Binding affinity towards human opioid Kappa receptor transfected into Chinese hamster ovary (CHO) cells using [3H]U-69593 as radioligand.; assay type: cell-based
[7] = molecular target: T3, Mu-type opioid receptor; experiment: Agonistic activity against human opioid Mu receptor transfected into Chinese hamster ovary (CHO) cells using [3H]-DAMGO as radioligand; assay type: functional, cell-based
[8] = molecular target: T3, Mu-type opioid receptor; experiment: Binding affinity towards human opioid Mu receptor transfected into Chinese hamster ovary (CHO) cells using [3H]DAMGO as radioligand; assay type: cell-based
[9] = molecular target: T1, Kappa-type opioid receptor; details: CHO
Description: Antagonistic activity against human opioid Kappa receptor transfected into Chinese hamster ovary (CHO) cells using [3H]U-69593 as radioligand

[10] = molecular target: T3, Mu-type opioid receptor; experiment: as §2; assay type: functional, cell-based
[11] = molecular target: T1, Kappa-type opioid receptor; experiment: as §1; assay type: functional, cell-based; remark: listed apart in the source

T2 sequence (P41143 whole entry): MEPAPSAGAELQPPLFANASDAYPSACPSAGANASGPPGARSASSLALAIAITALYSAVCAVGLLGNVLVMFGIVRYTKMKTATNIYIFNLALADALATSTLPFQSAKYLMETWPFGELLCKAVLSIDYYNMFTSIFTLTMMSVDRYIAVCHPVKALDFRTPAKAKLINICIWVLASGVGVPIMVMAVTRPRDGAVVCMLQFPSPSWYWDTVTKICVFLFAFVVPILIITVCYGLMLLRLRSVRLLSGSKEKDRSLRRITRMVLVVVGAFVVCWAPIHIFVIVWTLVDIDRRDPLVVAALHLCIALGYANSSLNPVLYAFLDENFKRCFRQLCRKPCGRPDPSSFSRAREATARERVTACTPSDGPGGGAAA
T1 sequence (P41145 whole entry): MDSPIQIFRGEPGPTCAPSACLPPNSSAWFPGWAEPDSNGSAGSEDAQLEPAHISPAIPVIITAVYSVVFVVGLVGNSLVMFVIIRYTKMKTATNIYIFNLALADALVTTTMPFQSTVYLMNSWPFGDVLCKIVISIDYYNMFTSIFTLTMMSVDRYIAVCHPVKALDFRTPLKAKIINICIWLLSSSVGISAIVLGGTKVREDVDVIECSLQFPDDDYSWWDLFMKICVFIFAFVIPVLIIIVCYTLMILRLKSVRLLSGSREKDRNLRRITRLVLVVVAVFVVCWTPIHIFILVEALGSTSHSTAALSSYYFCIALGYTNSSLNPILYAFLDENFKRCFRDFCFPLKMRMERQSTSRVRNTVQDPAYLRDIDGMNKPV
T3 sequence (P35372 whole entry): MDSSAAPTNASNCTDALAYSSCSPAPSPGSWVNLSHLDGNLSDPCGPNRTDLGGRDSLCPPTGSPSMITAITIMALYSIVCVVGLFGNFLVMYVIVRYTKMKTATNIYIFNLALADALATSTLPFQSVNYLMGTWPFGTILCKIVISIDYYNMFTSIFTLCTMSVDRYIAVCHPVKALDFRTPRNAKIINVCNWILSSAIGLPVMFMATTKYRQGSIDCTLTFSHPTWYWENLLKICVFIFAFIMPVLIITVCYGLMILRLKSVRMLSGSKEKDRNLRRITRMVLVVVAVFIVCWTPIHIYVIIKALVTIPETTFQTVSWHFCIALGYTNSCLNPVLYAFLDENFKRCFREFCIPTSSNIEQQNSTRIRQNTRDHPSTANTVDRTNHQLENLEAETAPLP

| SMILES | Stimulation [1] [%] | Stimulation [2] [%] | Stimulation [3] [%] | EC50 [4] [nM] | Ki [5] [nM] | Ki [6] [nM] | EC50 [7] [nM] | Ki [8] [nM] | Ke [9] | Stimulation [10] [%] | EC50 [11] [nM] |
| --- | --- | --- | --- | --- | --- | --- | --- | --- | --- | --- | --- |
| CN1CCC23c4c5ccc(O)c4OC2c2nc(O)ncc2CC3(O)C1C5 (centres undefined) | 40.7 | 97 | 87.7 | – | – | – | – | – | – | – | – |
| CN1CCC23c4c5ccc(O)c4OC2c2n[nH]cc2CC3(O)C1C5 (centres undefined) | 18.9 | 75.2 | 80.3 | 25 | 12.2 | 11.9 | 19.3 | 1.72 | 59.3 | – | – |
| CN1CCC23c4c5ccc(O)c4OC2c2nc(N)ncc2CC3(O)C1C5 (centres undefined) | 34.3 | – | – | 66.1 | 19 | 21.1 | 75.2 | 7.32 | – | 78.7 | 1080 |
| Cc1ncc2c(n1)C1Oc3c(O)ccc4c3C13CCN(C)C(C4)C3(O)C2 (centres undefined) | 97 | 60 | 109 | 95.9 | 24 | 68.5 | 71.9 | 5.26 | – | – | 2730 |
| CN1CCC23c4c5ccc(O)c4OC2c2nc(-c4ccccc4)ncc2CC3(O)C1C5 (centres undefined) | 49.5 | 92.5 | 89.4 | 24 | 6.48 | 45 | 58.4 | 7.34 | – | – | 1420 |
| CN1CCC23c4c5ccc(O)c4OC2c2[nH]c(=O)ncc2CC3(O)C1C5 (centres undefined) | – | – | – | 61.5 | 19.1 | 12.3 | 110 | 3.75 | – | – | 1020 |
